Converted amounts (≈) assume the structure as drawn.
Columns and labels:
[1] = Chemical stability on storage up to 3 months (HPLC purity), Table 13-4; type: physicochemical; details: for stability in chemical properties: 40° C./75% humidity (sealed and protected from light); for Purity (%), 230 nm, Day 13: 40° C./75% humidity, sealed and protected from light
Protocol: B) The HPLC method used for the stability study was as follows:
The vials were sealed with tin foil and then separately placed under the conditions of 40° C. temperature/75% humidity or 25° C. temperature/60% humidity for about 3 months. The samples after being placed for 0 months, 2 weeks, 1 month and 3 months were taken and each dissolved in a diluent to prepare a solution at about 1.0 mg/mL, which was then tested for chemical stability by HPLC analysis using Shimadzu LC-20ADxr.

[2] = Solubility in biological media and purified water at 37° C. (tartrate, ethanesulfonate, 2-hydroxyethanesulfonate, sulfate); type: physicochemical
Protocol: (§1) A) The HPLC method used for the solubility test was as follows:
The centrifuge tubes were shaken on a constant temperature incubator shaker (at a temperature of 37° C., with a shaking frequency of 100 times/min).

[3] = Hygroscopicity test (dynamic vapor sorption, DVS); type: physicochemical; details: for weight gain (DVS): 25° C.; for hygroscopicity: DVS
Protocol: The instrument used for dynamic vapor sorption analysis was Vsorp (ProUmid GmbH & Co. KG, Germany). Each sample was subjected to vapor sorption/desorption tests using the Vsorp vapor sorption analyzer (ProUmid GmbH & Co. KG, Germany). The sample was placed in a tared sample tray, and the change in the sample mass with humidity (0-90% RH) at 25° C. was recorded.

[4] = Solid-state stability test (HPLC purity and XRPD), Table 13-3; type: physicochemical
Protocol: B) The HPLC method used for the stability test was as follows:
The samples after being placed for 0 days, 1 week, 2 weeks and 30 days were taken and each dissolved in a diluent to prepare a solution at about 1.0 mg/mL, which was then tested for chemical stability by HPLC analysis using Agilent HPLC 1260 series. The solid samples after being placed for 2 weeks and 30 days were tested for physical stability by XRPD analysis.

[5] = Solubility in biologically relevant media at 37° C. (free base crystal form I, crystal form III of maleate); type: physicochemical; details: for pH 24 h: filtrate
Protocol: as §1
15 mg of each sample was weighed and dispersed in 3.0 mL of biologically relevant medium. The dispersion was shaken on a shaker at a rotation speed of 800 rpm at 37° C. 1 mL of the dispersion was taken at 0.5 h, 2 h, and 24 h, and filtered. The filtrate was tested for solubility by Agilent HPLC 1260 series and for pH value by a pH meter. The filter cake was characterized for the crystal form by XRPD.

[6] = Pharmacokinetic study in rats; type: in vivo, SD rats
Protocol: Compound I, 2-hydroxyethanesulfonate of compound I, ethanesulfonate (crystal form I) of compound I, tartrate of compound I, and sulfate of compound I were each accurately weighed, and the required volume of vehicle was added. The mixture was stirred for 5 min, then sonicated below 25° C. until no large particles were visible to the naked eye, and further stirred for 30 min until a homogeneous suspension was obtained. The suspension was then used for administration.
Male SPF-grade SD rats (Beijing Vital River Laboratory Animal Technology Co., Ltd.) were given compound I, the 2-hydroxyethanesulfonate of compound I, the ethanesulfonate of compound I (crystal form I), the tartrate of compound I, and the sulfate of compound I by single intragastric administration after an acclimation period (with free access to water and food). Blood was collected from the orbital venous plexus of the rats at 0.167 h, 0.5 h, 1 h, 2 h, 3 h, 4 h, 6 h, 9 h, 12 h, and 24 h after administration. Each blood sample was centrifuged at 3500×g for 10 min at 4° C. The supernatant was then collected, and the concentration of compound I in the plasma was measured by LC-MS/MS (AB Sciex TRIPLE QUAD 3500). The data were analyzed using a non-compartmental model in WinNonlin (version 5.2.1 Pharsight, Mountain View, CA) to obtain PK parameters.

[7] = filter cake after 24 h in FaSSIF
[8] = filter cake after 24 h in FeSSIF
[9] = 60° C./sealed, 60° C./sealed/N2, 40° C./75% RH (open), RT/sealed for 2 weeks
[10] = simulated gastric fluid, thermodynamic from solid, SGF, 37° C.
[11] = male SD rats, single intragastric administration, 10 mg/kg (calculated as compound I), 10 mL/kg, suspension in 0.5% CMC-Na aqueous solution, plasma concentration of compound I

stability in chemical properties [1]	Purity (%), 230 nm, Day 13 [1] [%]	Purity (%), 230 nm, Day 0 [1] [%]	XRPD spectra before and after the DVS test [3]	weight gain (DVS) ([3]; 0.0% RH to 80% RH)	hygroscopicity [3]	Purity (%), 230 nm, 40° C./75% RH (open) Week 2 ([4]; 40° C./75% RH (open)) [%]	Purity (%), 230 nm, 60° C./sealed Week 2 ([4]; 60° C./sealed) [%]	Purity (%), 230 nm, Day 0 [4] [%]	weight gain (DVS) ([3]; 0.0% RH to 90% RH) [%]	XRPD (24 h) [5, 7]	XRPD (24 h) [5, 8]	XRPD (24 h) ([5]; filter cake after 24 h in SGF)	pH 24 h ([5]; FaSSIF)	pH 24 h ([5]; FeSSIF)	pH 24 h ([5]; SGF)	Purity (%), 230 nm, 40° C./75% RH (open) Week 1 ([4]; 40° C./75% RH (open)) [%]	stability in physical and chemical properties [4, 9]	Purity (%), 230 nm, 60° C./sealed Week 1 ([4]; 60° C./sealed) [%]	Purity (%), 230 nm, 60° C./sealed/N2 Week 1 [4] [%]	also measured	Structure (SMILES)
substantially stable	98.7	98.76	–	–	–	–	–	–	–	–	–	–	–	–	–	–	–	–	–	–	Cn1c(C(=O)N2CC(F)(F)C2)cc2c1CN(c1ncc(F)c(Nc3ccc(-c4cn[nH]c4)cc3)n1)CC2.O=S(=O)(O)CCO
substantially stable	98.69	98.68	crystal form remained unchanged	about 0.3%	slightly hygroscopic	99.49	99.50	99.48	–	–	–	–	–	–	–	–	–	–	–	solubility in SGF in the first 4 h [2]: around 100 μg/mL; stability in physical and chemical properties ([4]; 40° C./75% RH (open) and 60° C./sealed): substantially stable; Purity (%), 230 nm, 40° C./75% RH (open) Day 30 ([4]; 40° C./75% RH (open), Day 30): 99.48%; Purity (%), 230 nm, 60° C./sealed Day 30 ([4]; 60° C./sealed, Day 30): 99.49%	CCS(=O)(=O)O.Cn1c(C(=O)N2CC(F)(F)C2)cc2c1CN(c1ncc(F)c(Nc3ccc(-c4cn[nH]c4)cc3)n1)CC2 [Crystal form I of ethanesulfonate]
–	–	–	crystal form remained unchanged	0.29%	slightly hygroscopic	97.92	97.85	98.11	0.37	underwent a crystal form transformation	underwent a crystal form transformation	underwent a crystal form transformation	5.33	4.90	1.29	98.00	slight degradation	97.96	97.95	Solubility 0.5 h ([5]; FaSSIF, 37° C.): 0.14 µg/mL; Solubility 24 h ([5]; FaSSIF, 37° C.): 1.11 µg/mL; Solubility 0.5 h ([5]; FeSSIF, 37° C.): 0.74 µg/mL; Solubility 2 h ([5]; FeSSIF, 37° C.): 2.47 µg/mL; Solubility 24 h ([5]; FeSSIF, 37° C.): 3.90 µg/mL; Solubility 2 h ([5]; SGF, 37° C.): 2.18 µg/mL; Solubility 24 h ([5]; SGF, 37° C.): 6.45 µg/mL; Purity (%), 230 nm, 60° C./sealed/N2 Week 2 [4]: 97.97%; Purity (%), 230 nm, RT/sealed Week 2 [4]: 98.02%	Cn1c(C(=O)N2CC(F)(F)C2)cc2c1CN(c1ncc(F)c(Nc3ccc(-c4cn[nH]c4)cc3)n1)CC2.O=C(O)/C=C\C(=O)O [Crystal form III of maleate]
–	–	–	crystal form remained unchanged	0.30%	slightly hygroscopic	97.88	97.85	97.90	0.46	remained unchanged	remained unchanged	underwent a crystal form transformation	6.53	5.02	1.30	97.82	substantially stable	97.82	97.83	solubility ([5]; fassgf or other biorelevant, thermodynamic from solid, SGF, FaSSIF and FeSSIF, 37° C., read-out: solubility in the three biologically relevant media): < 50 µg/mL; solubility at 24 h ([5]; pH 1.3, simulated gastric fluid, thermodynamic from solid, SGF, 37° C.): 8.57 µg/mL (≈ 16.9 µM); solubility at 24 h ([5]; pH 5.02, thermodynamic from solid, FeSSIF, 37° C.): 3.35 µg/mL (≈ 6.59 µM); solubility at 24 h ([5]; pH 6.53, thermodynamic from solid, FaSSIF, 37° C.): 0.39 µg/mL (≈ 0.767 µM); solubility at 0.5 h [5, 10]: 11.5 µg/mL (≈ 22.6 µM); solubility at 2 h [5, 10]: 6.69 µg/mL (≈ 13.2 µM); solubility at 0.5 h ([5]; thermodynamic from solid, FaSSIF, 37° C.): 0.29 µg/mL (≈ 0.57 µM); solubility at 2 h ([5]; thermodynamic from solid, FeSSIF, 37° C.): 1.79 µg/mL (≈ 3.52 µM); Purity (%), 230 nm, 60° C./sealed/N2 Week 2 [4]: 97.84%; Purity (%), 230 nm, RT/sealed Week 2 [4]: 97.93%	Cn1c(C(=O)N2CC(F)(F)C2)cc2c1CN(c1ncc(F)c(Nc3ccc(-c4cn[nH]c4)cc3)n1)CC2 [Free base crystal form I]
–	–	–	–	–	–	–	–	–	–	–	–	–	–	–	–	–	–	–	–	AUClast [6, 11]: 9449 ng·h/mL; Cmax [6, 11]: 827 ng/mL	O=S(=O)(O)CCO [Sample 2-Hydroxyethanesulfonate, 2-Hydroxyethanesulfonate]
–	–	–	–	–	–	–	–	–	–	–	–	–	–	–	–	–	–	–	–	AUClast ([6]; rat, in vivo, po, 10 mg/kg): 13429 ng·h/mL	O=S(=O)(O)O [Sulfate]

Source: patent US20250074908A1, “SALT OF ROCK INHIBITOR, CRYSTAL FORM OF SALT, COMPOSITION, AND PHARMACEUTICAL USE” (WUHAN CREATERNA SCIENCE AND TECHNOLOGY CO., LTD., priority 2022, published 2025)
